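48-hour exposure; five concentrations; linearly interpolated endpoints. GI50: concentration for 50% inhibition of growth.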 The source made the active and inactive calls. No stated cut-off is given here; in the data, active = GI50 up to about 1.1 µM and inactive = higher.
Columns and labels:
Experiment in all cases: NCI-60 cell line screen, 48 h
[1] = system: SF-295
[2] = system: TK-10
[3] = system: NCI-H226
[4] = system: MOLT-4
[5] = system: SK-MEL-28
[6] = system: SN12C
[7] = system: NCI-H522
[8] = system: UO-31
[9] = system: ACHN
[10] = system: SK-MEL-2
[11] = system: UACC-257
[12] = system: UACC-62
[13] = system: HCT-15
[14] = system: MDA-MB-231
[15] = system: OVCAR-3
[16] = system: CAKI-1
[17] = system: HCC 2998
[18] = system: A549
[19] = system: T47D

Row | Structure (SMILES) | GI50 [1] | GI50 [2] | GI50 [3] | GI50 [4] | GI50 [5] | GI50 [6] | GI50 [7] | GI50 [8] | GI50 [9] | GI50 [10] | GI50 [11] | GI50 [12] | GI50 [13] [µM] | GI50 [14] | GI50 [15] | GI50 [16] | GI50 [17] | GI50 [18] | GI50 [19]
1 | Nc1ccc(-c2nc3ccccc3s2)cc1Cl | 53.5 µM (inactive) | < 0.01 µM (active) | 0.571 µM (active) | 16.3 µM (inactive) | > 100 µM (inactive) | > 100 µM (inactive) | 98.6 µM (inactive) | 23.3 µM (inactive) | > 100 µM (inactive) | > 100 µM (inactive) | > 100 µM (inactive) | > 100 µM (inactive) | > 48.8 | > 92.9 µM (inactive) | < 0.01 µM (active) | > 93.3 µM (inactive) | > 64.3 µM (inactive) | > 87.1 µM (inactive) | –
2 | CC1=NN(C(=O)CC(=O)NC(=O)/C=C\c2ccccc2)C(=O)C1/N=N/c1ccc([N+](=O)[O-])cc1 (stereo not given) | 53.6 µM (inactive) | 48.5 µM (inactive) | – | 60.1 µM (inactive) | > 100 µM (inactive) | > 100 µM (inactive) | – | 48 µM (inactive) | 37.4 µM (inactive) | – | – | 24.3 µM (inactive) | > 100 | > 100 µM (inactive) | 50.7 µM (inactive) | 30.6 µM (inactive) | > 100 µM (inactive) | 84.5 µM (inactive) | > 100 µM (inactive)
3 | O/N=C/[C@H]1COC2(CCCCC2)O1 | > 100 µM (inactive) | > 100 µM (inactive) | > 100 µM (inactive) | > 100 µM (inactive) | > 100 µM (inactive) | > 100 µM (inactive) | – | > 100 µM (inactive) | > 100 µM (inactive) | > 100 µM (inactive) | > 100 µM (inactive) | > 100 µM (inactive) | > 100 | > 100 µM (inactive) | > 100 µM (inactive) | – | – | > 100 µM (inactive) | –
4 | CCN(CC)c1ccc(/C=C/C(=O)c2cc(C(C)(C)C)c(O)c(C(C)(C)C)c2)cc1 | 2.6 µM (inactive) | 5.71 µM (inactive) | 39.3 µM (inactive) | 4.49 µM (inactive) | > 50.7 µM (inactive) | 27.4 µM (inactive) | 3.07 µM (inactive) | 17.6 µM (inactive) | > 42.6 µM (inactive) | 6.76 µM (inactive) | 6.85 µM (inactive) | 6.81 µM (inactive) | 21.1 | 9.2 µM (inactive) | 10.2 µM (inactive) | 5.14 µM (inactive) | 16.3 µM (inactive) | 19.6 µM (inactive) | –
5 | CCOC(=O)C1(C)CCCc2sc(N)c(C#N)c21 (stereo not given) | – | > 100 µM (inactive) | > 100 µM (inactive) | > 100 µM (inactive) | > 100 µM (inactive) | > 100 µM (inactive) | – | > 100 µM (inactive) | > 100 µM (inactive) | > 100 µM (inactive) | > 100 µM (inactive) | > 100 µM (inactive) | > 100 | > 100 µM (inactive) | – | – | > 100 µM (inactive) | > 100 µM (inactive) | –
6 | CCOC(=O)C1=C(C)OC(=O)[C@@]2(OC)C=C(Cl)[C@@]12C | > 100 µM (inactive) | > 100 µM (inactive) | > 100 µM (inactive) | > 100 µM (inactive) | > 100 µM (inactive) | > 100 µM (inactive) | > 100 µM (inactive) | > 100 µM (inactive) | > 100 µM (inactive) | – | > 100 µM (inactive) | > 100 µM (inactive) | > 100 | > 100 µM (inactive) | > 100 µM (inactive) | > 100 µM (inactive) | > 100 µM (inactive) | > 100 µM (inactive) | –
7 | [N-]=[N+]=NC1C2CC3CC(C2)CC1C3 (stereo not given) | > 100 µM (inactive) | > 100 µM (inactive) | > 100 µM (inactive) | > 100 µM (inactive) | > 100 µM (inactive) | > 100 µM (inactive) | > 100 µM (inactive) | > 100 µM (inactive) | > 100 µM (inactive) | > 100 µM (inactive) | > 100 µM (inactive) | > 100 µM (inactive) | – | – | > 100 µM (inactive) | > 100 µM (inactive) | > 100 µM (inactive) | > 100 µM (inactive) | –
8 | [O-][n+]1c2cccc(O)c2[n+]([O-])c2cccc(O)c21 | 57.9 µM (inactive) | 23.4 µM (inactive) | – | 3.99 µM (inactive) | – | – | 20.4 µM (inactive) | > 100 µM (inactive) | 14.2 µM (inactive) | – | 37.9 µM (inactive) | – | 46.6 | – | 29.2 µM (inactive) | 25.1 µM (inactive) | – | 84.7 µM (inactive) | 40.2 µM (inactive)
9 | O=c1cnc2cc3ccccc3cc2[nH]1 | > 100 µM (inactive) | > 100 µM (inactive) | > 100 µM (inactive) | > 100 µM (inactive) | > 100 µM (inactive) | > 100 µM (inactive) | > 100 µM (inactive) | 46.9 µM (inactive) | > 100 µM (inactive) | > 100 µM (inactive) | > 100 µM (inactive) | – | > 100 | 75.7 µM (inactive) | > 100 µM (inactive) | > 100 µM (inactive) | > 100 µM (inactive) | > 100 µM (inactive) | –
10 | C[C@]12CCC(=O)C=C1CC[C@@H]1C2CC[C@@]2(C)C1CC[C@@H]2OC(=O)C12OC1CCC2=O (stereo not given in full) | 16.7 µM (inactive) | 20 µM (inactive) | 19.1 µM (inactive) | 10.1 µM (inactive) | 17.4 µM (inactive) | 23.2 µM (inactive) | 10.7 µM (inactive) | 16.5 µM (inactive) | 15.6 µM (inactive) | 15.2 µM (inactive) | 18 µM (inactive) | 18.3 µM (inactive) | 17 | – | 18.9 µM (inactive) | – | 20.3 µM (inactive) | 25 µM (inactive) | –
11 | CN1CCCC2[C@@H]3CCC4=C(O)C(=O)CC[C@]4(C)C3CC[C@@]21C (stereo not given in full) | > 100 µM (inactive) | > 100 µM (inactive) | > 100 µM (inactive) | > 100 µM (inactive) | > 100 µM (inactive) | > 100 µM (inactive) | > 100 µM (inactive) | > 100 µM (inactive) | > 100 µM (inactive) | 1.4 µM (inactive) | > 100 µM (inactive) | > 100 µM (inactive) | > 100 | – | > 100 µM (inactive) | > 100 µM (inactive) | – | > 100 µM (inactive) | –
12 | Cc1ccc(/C=C/C(=O)Oc2ccc(/C=C3\CCC/C(=C\c4ccc(OC(=O)/C=C/c5ccc(C)cc5)cc4)C3=O)cc2)cc1 | 25.1 µM (inactive) | 31.4 µM (inactive) | – | > 100 µM (inactive) | > 100 µM (inactive) | > 100 µM (inactive) | > 100 µM (inactive) | > 100 µM (inactive) | 37.3 µM (inactive) | 48.3 µM (inactive) | > 100 µM (inactive) | 74.1 µM (inactive) | > 100 | 28.8 µM (inactive) | > 100 µM (inactive) | 79.8 µM (inactive) | > 100 µM (inactive) | > 100 µM (inactive) | 92.3 µM (inactive)
13 | CCOC(=O)CCCSCCCC(=O)CCCSCCCC(=O)OCC | > 100 µM (inactive) | > 100 µM (inactive) | – | > 100 µM (inactive) | > 100 µM (inactive) | > 100 µM (inactive) | > 100 µM (inactive) | > 100 µM (inactive) | – | – | > 100 µM (inactive) | > 100 µM (inactive) | > 100 | > 100 µM (inactive) | > 100 µM (inactive) | – | > 100 µM (inactive) | > 100 µM (inactive) | > 100 µM (inactive)
14 | CCOC(=O)N1CCC2C(=C(C)C(C)C3=C2C(=O)c2ccccc2C3=O)C1 (stereo not given) | 3.82 µM (inactive) | > 10 µM (inactive) | – | 4.6 µM (inactive) | 5.05 µM (inactive) | 3.86 µM (inactive) | – | – | – | – | 3.29 µM (inactive) | 4.41 µM (inactive) | 3.88 | 4.07 µM (inactive) | – | 4.73 µM (inactive) | 5.19 µM (inactive) | 4.3 µM (inactive) | 9.55 µM (inactive)
15 | CO[C@H]1C[C@H](n2cc(C)c(=O)[nH]c2=O)O[C@@H]1CO | > 100 µM (inactive) | > 100 µM (inactive) | > 100 µM (inactive) | > 100 µM (inactive) | > 100 µM (inactive) | > 100 µM (inactive) | – | > 100 µM (inactive) | > 100 µM (inactive) | – | > 100 µM (inactive) | > 100 µM (inactive) | > 100 | > 100 µM (inactive) | > 100 µM (inactive) | > 100 µM (inactive) | > 100 µM (inactive) | > 100 µM (inactive) | –
16 | O=C(/C=C/c1ccccc1)Oc1ccc(C(=O)/C=C/c2ccc(Cl)cc2)cc1 | 82.6 µM (inactive) | > 100 µM (inactive) | – | > 100 µM (inactive) | > 100 µM (inactive) | > 100 µM (inactive) | – | 63.8 µM (inactive) | > 100 µM (inactive) | > 100 µM (inactive) | > 100 µM (inactive) | > 100 µM (inactive) | – | > 100 µM (inactive) | > 100 µM (inactive) | > 100 µM (inactive) | 41.3 µM (inactive) | > 100 µM (inactive) | 66.7 µM (inactive)
17 | CC(C)C[C@H](NC(=O)[C@H](Cc1ccccc1)NC(=O)c1cnccn1)B(O)O [BORTEZOMIB] | < 0.01 µM (active) | < 0.01 µM (active) | – | < 0.01 µM (active) | < 0.01 µM (active) | < 0.01 µM (active) | < 0.01 µM (active) | < 0.01 µM (active) | < 0.01 µM (active) | 0.01 µM (active) | < 0.01 µM (active) | < 0.01 µM (active) | < 0.01 | < 0.01 µM (active) | < 0.01 µM (active) | < 0.01 µM (active) | < 0.01 µM (active) | < 0.01 µM (active) | < 0.01 µM (active)
